According to patent US20260053782A1, “TREATMENT REGIMENS FOR PARKINSON'S DISEASE” (BIAL - PORTELA & CA, S.A., priority 2022, published 2026):
Blank lines part the entries; values can stand above or below the compound they belong to.

Assays:
[1] = cited from earlier work
[2] = tested on: patients suffering from early idiopathic Parkinson's disease; details: addition of entacapone vs levodopa-only therapy; levodopa-naïve patients; cited from earlier work
[3] = Levodopa pharmacokinetics over 12 hours after 2 weeks of each LD/CD regimen with or without opicapone 50 mg (Phase II open-label trial); details: human, in vivo
Protocol: The invention was discovered through a Phase IL, randomized, open-label trial evaluating the effect of opicapone (50 mg once-daily) on L-DOPA pharmacokinetics in Parkinson's disease patients with end-of-dose motor fluctuations taking different levodopa/carbidopa (LD/CD) sparing regimens (EudraCT number: 2020-003139-12).
Following screening, all subjects received an LD/CD dose and regimen of 100/25 mg QD5 (giving a total daily dose of 500/125 mg) fixed every 3 hours (from 8:00 to 20:00) for 14±2 days. This is the reference regimen. […]
The pharmacokinetic parameters assessed for each of the regimens included maximum observed plasma concentration (Cmax), time to achieve peak plasma levels (tmax), minimum observed plasma concentration (Cmin), plasma elimination half-life (t1/2), area under the curve (AUC) and fluctuation index (FI, as an expression of peak-to-trough fluctuation, Cmax and Cmin relative to average concentration Cavg).

[4] = tested on: Parkinson's disease patients with end-of-dose motor fluctuations; test: 12-hour patient ON/OFF monitoring registered by investigators on pharmacokinetics days; assay type: in vivo, human; details: addition of opicapone; overall summary
Description: Subjects were aged ≥30 years with a clinical diagnosis of idiopathic Parkinson's disease according to the United Kingdom Parkinson's Disease Society Brain Bank Clinical Diagnostic Criteria with disease severity stage 1-3 (according to modified Hoehn & Yahr staging) at ON and with end-of-dose motor fluctuations and signs of “wearing off”. Subjects were receiving treatment with levodopa/DDCI for at least 1 year with clear clinical improvement.
Clinical and safety/tolerability outcomes were also assessed as exploratory secondary outcomes. Clinical outcomes included ON and OFF-time assessed using patient-rated tools. The timing of ON and OFF state was registered (in real time) by the investigators during the matching 12-hour pharmacokinetic evaluation, as such applied on the pharmacokinetics days only), and patients also completed 24-hour Hauser ON/OFF diary charts (in 30 minute blocks) during the three days before each pharmacokinetic visit. […] In addition, the patient global impression of change (PGI-C) of opicapone 50 mg was evaluated at the end of the LD/CD 400/100 mg plus opicapone treatment, compared to before the start of the opicapone treatment. […]
All study assessments were evaluated for each LD/CD 400/100 mg plus 50 mg opicapone treatment regimen, compared to the LD/CD 500/125 mg without opicapone regimen.

SMILES: N[C@@H](Cc1ccc(O)c(O)c1)C(=O)O [levodopa, L-3,4-dihydroxyphenylalanine]
half-life of oral levodopa [1]: 1 to 1.5 h

SMILES: CCN(CC)C(=O)/C(C#N)=C/c1cc(O)c(O)c([N+](=O)[O-])c1 [entacapone]
frequency of dyskinesia [2]: increased frequency of dyskinesia

difference in levodopa tmax [3]: no impact | increase in levodopa t1/2 [3]: at least doubled
SMILES: Cc1c(Cl)c(C)[n+]([O-])c(Cl)c1-c1noc(-c2cc(O)c(O)c([N+](=O)[O-])c2)n1 [opicapone]
OFF time [4]: reduced OFF time | ON time [4]: increased ON time
